Assay results reported in ChEMBL document CHEMBL1201862, “PubChem BioAssay data set” (2004).
Values belong to the compound of their own block, whether it stands above or below them. The source made the active and inactive calls.

Key:
Cytochrome P450 2C9 = Cytochrome P450 2C9 (Homo sapiens, UniProt P11712)
Cytochrome P450 2C19 = Cytochrome P450 2C19 (Homo sapiens, UniProt P33261); assay: Cytochrome panel assay with activity outcomes. Panel member name: p450-cyp2c19 Compounds with AC50 equal or less than 10 uM are considered active; assay type: functional
Cytochrome P450 2D6 [1] = molecular target: T1, Cytochrome P450 2D6 (Homo sapiens, UniProt P10635);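 also: CYP2D6 member of a cytochrome P450 panel assay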
Cytochrome P450 3A4 = Cytochrome P450 3A4 (Homo sapiens, UniProt P08684);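 also: CYP3A4 tested as one member of a cytochrome P450 panel screen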
[2] = molecular target: T2, Type-1 angiotensin II receptor (Homo sapiens, UniProt P30556); assay: AT1 receptor antagonists, dose response, selectivity assay for APJ receptor antagonist project, cell-based, uHTS hits (AID 463214); assay type: functional;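 also: antagonist potency against angiotensin II stimulated AT1 response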
T2 sequence (P30556 whole entry): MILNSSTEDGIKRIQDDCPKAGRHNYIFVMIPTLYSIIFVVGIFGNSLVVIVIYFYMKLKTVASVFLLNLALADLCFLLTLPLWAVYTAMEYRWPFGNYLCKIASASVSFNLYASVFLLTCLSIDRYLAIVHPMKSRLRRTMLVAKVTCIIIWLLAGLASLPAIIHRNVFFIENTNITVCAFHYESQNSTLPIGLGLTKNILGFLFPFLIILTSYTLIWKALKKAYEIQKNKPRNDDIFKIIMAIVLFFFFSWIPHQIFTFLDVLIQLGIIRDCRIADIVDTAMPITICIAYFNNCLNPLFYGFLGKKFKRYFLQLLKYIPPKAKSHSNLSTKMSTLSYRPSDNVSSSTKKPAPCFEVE

Beta-galactosidase = Beta-galactosidase (Escherichia coli, UniProt Q8VNN2); assay: PubChem AID 485352; assay type: functional
Mu-type opioid receptor = Mu-type opioid receptor (Homo sapiens, UniProt P35372); assay: (§1) Counterscreen for agonists of heterodimerization of the mu 1 (OPRM1) and delta 1 (OPRD1) opioid receptors: Luminescence-based cell-based high throughput dose response assay to identify agonists of OPRM1 homodimerization.; assay type: functional
[3] = molecular target: T3, Heat shock factor protein 1 (Mus musculus, UniProt P38532); assay: HSF1 potentiators in luciferase reporter cells, confirmation, cell-based, NIH3T3, luminescence, dose retest (AID 435004); assay type: functional;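 also: stress induced by proteasome inhibitor MG132 added 30 min after compound; luciferase reporter driven by HSF1 response element in NIH3T3 cells; actives raise luminescence as potentiators of the MG132 stress response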
T3 sequence (P38532 whole entry): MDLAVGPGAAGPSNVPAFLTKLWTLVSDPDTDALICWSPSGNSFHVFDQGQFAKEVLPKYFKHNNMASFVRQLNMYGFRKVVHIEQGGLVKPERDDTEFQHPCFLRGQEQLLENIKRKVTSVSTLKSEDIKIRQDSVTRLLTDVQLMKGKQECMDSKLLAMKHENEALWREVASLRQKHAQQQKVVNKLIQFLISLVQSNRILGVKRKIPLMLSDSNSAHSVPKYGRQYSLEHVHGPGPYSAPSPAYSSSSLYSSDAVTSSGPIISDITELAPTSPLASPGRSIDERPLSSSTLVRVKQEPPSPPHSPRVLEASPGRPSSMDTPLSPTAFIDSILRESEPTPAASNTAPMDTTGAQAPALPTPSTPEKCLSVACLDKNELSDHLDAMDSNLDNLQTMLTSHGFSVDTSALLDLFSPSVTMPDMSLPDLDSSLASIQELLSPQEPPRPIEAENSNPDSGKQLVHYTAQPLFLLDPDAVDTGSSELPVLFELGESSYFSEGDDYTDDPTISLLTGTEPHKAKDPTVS

[4] = molecular target: Delta-type opioid receptor (Homo sapiens, UniProt P41143); assay: as §1, with “of OPRD1” for “of OPRM1”, “homodimerization. [Related pubchem assays (depositor defined):AID504326, AID504355, AID504692, AID504904, AID504905]” for “homodimerization.”; assay type: functional
[5] = molecular target: 5-hydroxytryptamine receptor 5A (Homo sapiens, UniProt P47898); assay: Counterscreen for agonists of OPRM1-OPRD1 heterodimerization: luminescence-based cell-based high throughput dose response assay to identify agonists of 5-hydroxytryptamine (serotonin) 5A receptor (HTR5A). [Related pubchem assays (depositor defined):AID504326, AID504355, AID504692, AID504904, AID504905]; assay type: functional
[6] = molecular target: T4, Ubiquitin-conjugating enzyme E2 N (Homo sapiens, UniProt P61088); assay type: functional
T4 sequence (P61088 whole entry): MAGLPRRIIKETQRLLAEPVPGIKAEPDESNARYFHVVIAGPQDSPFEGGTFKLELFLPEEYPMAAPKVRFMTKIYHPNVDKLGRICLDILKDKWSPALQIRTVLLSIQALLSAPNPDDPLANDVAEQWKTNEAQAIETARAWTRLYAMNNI

[7] = inhibitors of intracellular T. cruzi replication, confirmation, NIH3T3 host cells, beta-gal luminescence (AID 2044); assay type: functional, cell-based;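 also: intracellular parasites grown in NIH/3T3 mouse fibroblasts as host cells; luminescent beta-galactosidase reporter signal from transgenic T. cruzi replicating inside host cells; inhibitors lower the luminescence signal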
[8] = molecular target: T4, Ubiquitin-conjugating enzyme E2 N; assay type: functional; remark: listed apart in the source
[9] = cytotoxicity toward NIH3T3 fibroblasts, dose response, counter-screen, cell-based, ATP luminescence, mouse fibroblasts (AID 2010); assay type: functional;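 also: cells exposed to compound for about 90 hours before reading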
[10] = molecular target: T5, DNA repair and recombination protein RAD54-like (Homo sapiens, UniProt Q92698); assay: inhibitors of human RAD54 branch migration, confirmation, biochemical, fluorescence, cherry-picked samples, dose series (AID 651657); assay type: functional
T5 sequence (Q92698 whole entry): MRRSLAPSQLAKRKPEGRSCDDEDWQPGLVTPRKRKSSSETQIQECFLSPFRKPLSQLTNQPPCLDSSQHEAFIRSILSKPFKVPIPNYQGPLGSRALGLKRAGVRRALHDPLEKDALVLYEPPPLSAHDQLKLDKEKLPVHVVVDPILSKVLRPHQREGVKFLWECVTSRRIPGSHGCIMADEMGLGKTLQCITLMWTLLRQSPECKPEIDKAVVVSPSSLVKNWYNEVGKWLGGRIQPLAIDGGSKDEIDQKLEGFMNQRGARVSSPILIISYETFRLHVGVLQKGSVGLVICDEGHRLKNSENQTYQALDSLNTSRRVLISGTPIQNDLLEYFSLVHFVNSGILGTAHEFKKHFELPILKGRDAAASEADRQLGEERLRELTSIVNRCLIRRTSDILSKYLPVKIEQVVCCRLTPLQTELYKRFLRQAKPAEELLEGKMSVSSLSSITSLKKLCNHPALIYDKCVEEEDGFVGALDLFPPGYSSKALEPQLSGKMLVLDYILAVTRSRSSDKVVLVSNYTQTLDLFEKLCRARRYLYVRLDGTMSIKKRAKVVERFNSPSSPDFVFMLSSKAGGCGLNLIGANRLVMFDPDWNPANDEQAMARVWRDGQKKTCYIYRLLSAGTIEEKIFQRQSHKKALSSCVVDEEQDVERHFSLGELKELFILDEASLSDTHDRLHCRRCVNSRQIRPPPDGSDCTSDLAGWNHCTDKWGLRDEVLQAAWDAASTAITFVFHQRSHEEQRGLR

Bcl-2-related protein A1 = molecular target: T6, Bcl-2-related protein A1 (Mus musculus, UniProt Q07440); assay type: functional;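 also: confirmatory dose–response counterscreen on Bfl-1, used to check hits from a UBC13 polyubiquitin inhibitor campaign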
T6 sequence (Q07440 whole entry): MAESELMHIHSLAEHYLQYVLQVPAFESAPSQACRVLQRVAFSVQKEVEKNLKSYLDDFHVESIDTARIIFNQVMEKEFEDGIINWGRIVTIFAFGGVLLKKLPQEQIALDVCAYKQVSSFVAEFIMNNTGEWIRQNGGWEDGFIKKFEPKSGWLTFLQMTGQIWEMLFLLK

[11] = molecular target: T7, Short transient receptor potential channel 4 (Mus musculus, UniProt Q9QUQ5); assay: mouse TRPC4 channel activators, dose response, cell-based, HEK293 TRPC4/mu-opioid, Fluo-4 calcium (AID 434937); assay type: functional
T7 sequence (Q9QUQ5 whole entry): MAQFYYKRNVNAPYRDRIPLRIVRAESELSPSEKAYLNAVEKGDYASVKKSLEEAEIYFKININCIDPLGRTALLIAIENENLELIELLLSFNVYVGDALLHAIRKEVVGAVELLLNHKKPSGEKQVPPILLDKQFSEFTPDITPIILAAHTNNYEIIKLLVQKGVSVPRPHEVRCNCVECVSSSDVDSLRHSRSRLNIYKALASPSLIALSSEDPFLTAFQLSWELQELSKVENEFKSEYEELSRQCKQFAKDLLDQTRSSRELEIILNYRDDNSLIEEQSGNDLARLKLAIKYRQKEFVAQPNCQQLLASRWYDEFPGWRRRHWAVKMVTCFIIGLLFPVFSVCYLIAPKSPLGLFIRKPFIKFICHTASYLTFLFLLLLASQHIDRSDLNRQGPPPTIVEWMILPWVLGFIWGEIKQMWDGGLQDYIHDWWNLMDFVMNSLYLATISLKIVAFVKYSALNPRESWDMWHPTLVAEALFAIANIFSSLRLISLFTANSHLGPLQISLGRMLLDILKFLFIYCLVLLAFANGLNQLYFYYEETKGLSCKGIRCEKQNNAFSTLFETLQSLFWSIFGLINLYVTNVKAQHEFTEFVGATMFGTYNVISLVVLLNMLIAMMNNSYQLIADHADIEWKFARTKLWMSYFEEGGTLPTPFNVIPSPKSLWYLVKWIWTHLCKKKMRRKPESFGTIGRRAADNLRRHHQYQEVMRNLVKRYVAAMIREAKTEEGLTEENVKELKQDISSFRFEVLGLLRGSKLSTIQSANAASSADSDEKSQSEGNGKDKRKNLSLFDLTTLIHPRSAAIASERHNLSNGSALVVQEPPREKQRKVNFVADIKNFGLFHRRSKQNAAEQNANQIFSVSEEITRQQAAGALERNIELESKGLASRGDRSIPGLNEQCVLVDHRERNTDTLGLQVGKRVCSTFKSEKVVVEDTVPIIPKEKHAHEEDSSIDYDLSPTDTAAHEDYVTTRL

HEK293 [12] = assay: cells; settings: Homo sapiens
HEK293 [13] = assay: cells; settings: Homo sapiens; remark: listed apart in the source
Cytochrome P450 2D6 [14] = molecular target: T1, Cytochrome P450 2D6; remark: listed apart in the source
[15] = inhibitors of clade B AD8 Env fusion, dose response, cell-based, cherry-pick (AID 652062); assay type: functional;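 also: luciferase signal from cell-cell fusion driven by HIV-1 clade B AD8 Env; potency is for inhibitors of fusion seen as a drop in luminescence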
[16] = off-target signal loss in HeLa-CEM21 co-culture – HeLa F-luc CTL cells, cherry-picked, counter-screen for HIV-1 Env fusion inhibitor project, dose response (AID 652040); assay type: functional, cell-based;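 also: potency for signal decrease marking cytotoxic or nonspecific inhibition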
[17] = ZM109 Env clade C HIV-1 fusion inhibitors, dose response, HeLa effector, CEM target cells, luciferase, cherry-pick (AID 652058); assay type: functional, cell-based
[18] = inhibitors of HIV Env-driven cell fusion, dose response, cherry-pick (AID 652057); assay type: functional, cell-based

Chain of Cytochrome P450 3A4 (P08684 whole entry): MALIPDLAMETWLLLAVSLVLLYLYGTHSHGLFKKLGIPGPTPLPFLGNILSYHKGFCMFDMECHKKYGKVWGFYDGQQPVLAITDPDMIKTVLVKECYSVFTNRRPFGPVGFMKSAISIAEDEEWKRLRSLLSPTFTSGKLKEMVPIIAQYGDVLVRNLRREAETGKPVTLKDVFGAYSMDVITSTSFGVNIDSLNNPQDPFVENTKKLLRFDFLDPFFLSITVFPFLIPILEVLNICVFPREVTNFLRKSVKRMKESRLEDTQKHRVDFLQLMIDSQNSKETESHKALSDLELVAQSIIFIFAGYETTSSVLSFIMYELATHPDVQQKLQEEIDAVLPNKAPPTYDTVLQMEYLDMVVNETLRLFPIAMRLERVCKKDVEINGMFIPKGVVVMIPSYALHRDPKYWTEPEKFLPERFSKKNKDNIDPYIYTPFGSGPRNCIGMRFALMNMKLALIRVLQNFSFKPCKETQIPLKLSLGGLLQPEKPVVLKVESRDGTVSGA
Chain of 5-hydroxytryptamine receptor 5A (P47898 whole entry): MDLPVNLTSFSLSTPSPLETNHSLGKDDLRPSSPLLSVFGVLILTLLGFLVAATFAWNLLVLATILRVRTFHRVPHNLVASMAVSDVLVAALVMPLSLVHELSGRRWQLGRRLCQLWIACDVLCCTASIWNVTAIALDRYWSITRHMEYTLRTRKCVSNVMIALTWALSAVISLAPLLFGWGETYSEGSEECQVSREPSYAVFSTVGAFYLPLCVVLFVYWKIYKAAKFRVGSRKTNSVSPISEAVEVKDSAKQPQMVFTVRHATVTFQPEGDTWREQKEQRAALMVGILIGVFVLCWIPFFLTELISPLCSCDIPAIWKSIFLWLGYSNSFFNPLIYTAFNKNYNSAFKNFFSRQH
Chain of Cytochrome P450 2C19 (P33261 whole entry): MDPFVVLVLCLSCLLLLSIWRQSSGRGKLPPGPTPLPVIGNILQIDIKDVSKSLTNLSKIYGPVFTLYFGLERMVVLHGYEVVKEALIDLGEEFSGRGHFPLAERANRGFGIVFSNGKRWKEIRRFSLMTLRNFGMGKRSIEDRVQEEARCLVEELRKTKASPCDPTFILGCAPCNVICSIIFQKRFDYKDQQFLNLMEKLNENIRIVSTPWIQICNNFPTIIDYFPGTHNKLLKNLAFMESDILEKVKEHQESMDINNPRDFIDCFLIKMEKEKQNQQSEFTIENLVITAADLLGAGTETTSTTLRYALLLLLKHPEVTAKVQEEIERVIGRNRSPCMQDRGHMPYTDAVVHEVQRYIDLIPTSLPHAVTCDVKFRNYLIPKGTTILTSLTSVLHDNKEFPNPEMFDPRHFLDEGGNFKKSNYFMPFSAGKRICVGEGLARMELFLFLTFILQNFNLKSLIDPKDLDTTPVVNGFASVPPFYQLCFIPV
Chain of Delta-type opioid receptor (P41143 whole entry): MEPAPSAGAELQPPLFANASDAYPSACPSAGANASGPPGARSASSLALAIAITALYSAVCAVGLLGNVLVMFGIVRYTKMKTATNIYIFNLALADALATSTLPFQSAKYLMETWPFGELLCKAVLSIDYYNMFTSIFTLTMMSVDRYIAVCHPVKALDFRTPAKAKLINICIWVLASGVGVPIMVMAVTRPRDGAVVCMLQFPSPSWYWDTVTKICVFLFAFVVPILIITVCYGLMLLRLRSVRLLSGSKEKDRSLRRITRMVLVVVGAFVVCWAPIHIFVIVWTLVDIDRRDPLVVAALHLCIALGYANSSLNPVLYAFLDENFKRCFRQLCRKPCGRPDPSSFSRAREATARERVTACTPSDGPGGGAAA
Chain of Cytochrome P450 2C9 (P11712 whole entry): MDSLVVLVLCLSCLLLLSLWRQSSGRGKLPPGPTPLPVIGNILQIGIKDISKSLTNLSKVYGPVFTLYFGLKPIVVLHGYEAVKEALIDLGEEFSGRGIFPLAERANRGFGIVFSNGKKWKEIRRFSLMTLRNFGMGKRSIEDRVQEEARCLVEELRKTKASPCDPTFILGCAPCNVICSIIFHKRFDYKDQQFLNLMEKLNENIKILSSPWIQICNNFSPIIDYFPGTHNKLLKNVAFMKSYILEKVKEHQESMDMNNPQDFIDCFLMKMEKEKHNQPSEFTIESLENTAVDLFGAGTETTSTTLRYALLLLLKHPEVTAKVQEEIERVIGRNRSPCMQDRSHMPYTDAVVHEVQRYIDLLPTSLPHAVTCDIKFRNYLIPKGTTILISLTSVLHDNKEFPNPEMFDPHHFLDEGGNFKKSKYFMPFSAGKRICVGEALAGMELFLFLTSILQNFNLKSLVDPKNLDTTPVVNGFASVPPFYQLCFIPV
T1 sequence (P10635 whole entry): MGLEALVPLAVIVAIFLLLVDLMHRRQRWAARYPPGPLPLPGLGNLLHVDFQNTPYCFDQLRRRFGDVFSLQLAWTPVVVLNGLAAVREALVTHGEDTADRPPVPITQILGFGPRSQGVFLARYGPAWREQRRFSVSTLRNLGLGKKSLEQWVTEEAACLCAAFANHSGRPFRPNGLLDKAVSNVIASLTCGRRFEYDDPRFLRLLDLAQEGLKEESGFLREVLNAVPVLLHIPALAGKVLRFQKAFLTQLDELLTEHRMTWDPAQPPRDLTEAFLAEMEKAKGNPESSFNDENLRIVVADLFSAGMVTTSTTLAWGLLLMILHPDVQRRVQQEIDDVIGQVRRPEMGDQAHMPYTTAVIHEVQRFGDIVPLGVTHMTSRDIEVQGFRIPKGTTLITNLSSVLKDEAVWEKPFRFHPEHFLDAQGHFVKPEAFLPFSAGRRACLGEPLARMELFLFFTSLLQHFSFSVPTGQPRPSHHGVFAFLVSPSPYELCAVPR
Chain of Mu-type opioid receptor (P35372 whole entry): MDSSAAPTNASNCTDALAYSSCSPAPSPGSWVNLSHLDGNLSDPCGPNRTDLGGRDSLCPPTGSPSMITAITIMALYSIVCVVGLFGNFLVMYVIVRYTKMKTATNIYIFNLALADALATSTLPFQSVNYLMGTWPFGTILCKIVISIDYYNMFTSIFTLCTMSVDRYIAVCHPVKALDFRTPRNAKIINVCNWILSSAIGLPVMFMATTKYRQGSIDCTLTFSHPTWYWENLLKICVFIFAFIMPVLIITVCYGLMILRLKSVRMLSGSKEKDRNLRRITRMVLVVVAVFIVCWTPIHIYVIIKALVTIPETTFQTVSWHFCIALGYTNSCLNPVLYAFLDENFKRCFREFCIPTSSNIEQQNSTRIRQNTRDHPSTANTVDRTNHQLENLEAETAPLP
Chain of Beta-galactosidase (Q8VNN2 whole entry): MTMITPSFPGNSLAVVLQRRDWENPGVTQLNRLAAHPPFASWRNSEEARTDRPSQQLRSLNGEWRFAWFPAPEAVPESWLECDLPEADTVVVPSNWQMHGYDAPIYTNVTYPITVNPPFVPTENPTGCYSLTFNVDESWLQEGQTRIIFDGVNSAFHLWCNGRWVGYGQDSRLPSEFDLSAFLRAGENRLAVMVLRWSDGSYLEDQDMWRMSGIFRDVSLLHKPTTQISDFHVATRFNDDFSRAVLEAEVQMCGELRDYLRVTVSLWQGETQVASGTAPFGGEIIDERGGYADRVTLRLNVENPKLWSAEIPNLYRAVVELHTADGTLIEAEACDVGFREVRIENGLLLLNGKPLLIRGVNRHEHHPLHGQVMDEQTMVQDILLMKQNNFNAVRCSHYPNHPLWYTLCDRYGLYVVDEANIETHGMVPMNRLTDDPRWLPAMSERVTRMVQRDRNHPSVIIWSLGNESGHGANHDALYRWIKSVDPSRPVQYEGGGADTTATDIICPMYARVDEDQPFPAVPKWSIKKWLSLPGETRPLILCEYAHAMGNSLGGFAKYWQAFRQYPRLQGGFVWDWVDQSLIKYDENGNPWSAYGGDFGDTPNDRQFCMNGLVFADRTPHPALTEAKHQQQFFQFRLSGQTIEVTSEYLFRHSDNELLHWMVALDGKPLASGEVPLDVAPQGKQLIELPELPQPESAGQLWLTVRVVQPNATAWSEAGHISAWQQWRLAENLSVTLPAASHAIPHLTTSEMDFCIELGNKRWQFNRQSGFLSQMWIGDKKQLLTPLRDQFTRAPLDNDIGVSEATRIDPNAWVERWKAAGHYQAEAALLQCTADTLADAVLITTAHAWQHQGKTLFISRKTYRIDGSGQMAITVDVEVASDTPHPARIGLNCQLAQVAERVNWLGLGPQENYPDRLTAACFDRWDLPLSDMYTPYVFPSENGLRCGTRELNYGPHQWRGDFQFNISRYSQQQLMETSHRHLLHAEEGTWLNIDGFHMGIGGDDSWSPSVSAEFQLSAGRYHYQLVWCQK

SMILES: NC(=O)c1ccccc1NC(=O)/C=C/c1cccc(Cl)c1
AC50 (Cytochrome P450 2C9): inconclusive

SMILES: NCC(O)CN.Oc1c(Cl)c(Cl)c(Cl)c(Cl)c1Cl
AC50 (Cytochrome P450 2C19): inactive
AC50 (Cytochrome P450 2D6 [1]): inactive
AC50 (Cytochrome P450 3A4): inactive

IC50 [2]: 18 µM (active)
EC50 (Beta-galactosidase): > 40 µM (inactive)
SMILES: CC(=O)Nc1cccc(C(=O)OCC(=O)c2ccc(S(=O)(=O)N3CCCCC3)cc2)c1

EC50 (Mu-type opioid receptor): 70.5 µM (inactive)
EC50 [3]: > 260 µM (inactive)
EC50 [4]: > 92.5 µM (inactive)
EC50 [5]: > 92.5 µM (inactive)
SMILES: COc1ccc(-n2cc(CNCc3cccnc3)c(-c3cccc(F)c3)n2)cc1

SMILES: COc1cc2nc(NCCCN3CCN(C)CC3)n3nc(-c4ccccc4)nc3c2cc1OC
IC50 [6]: 6.25 µM (active)
EC50 [7]: 1.87 µM (active)
IC50 [8]: 17.6 µM (active)
EC50 [9]: > 60 µM (not active)
AC50 [10]: 2.98 µM (active)
IC50 (Bcl-2-related protein A1): > 20 µM (inactive)

EC50 (Mu-type opioid receptor): 15.7 µM (inactive)
EC50 [4]: > 92.5 µM (inactive)
EC50 [11]: 2.11 µM (active)
EC50 [5]: > 92.5 µM (inactive)
SMILES: Cn1c(CN2CCN(c3cccc(Cl)c3)CC2)nc2ccccc21

SMILES: CN(C)S(=O)(=O)n1cc(/C=C(\NC(=O)c2ccccc2Cl)C(=O)N2CCCC2)c2ccccc21
EC50 (HEK293 [12]): > 59.6 µM (inactive)
EC50 (HEK293 [13]): > 59.6 µM (inactive)

AC50 (Cytochrome P450 2D6 [14]): 39.8 µM (inconclusive)
AC50 (Cytochrome P450 3A4): inconclusive
SMILES: Cc1ccccc1-c1cc(Nc2ccccc2)ncn1

AC50 (Cytochrome P450 2C19; read-out: AC50): 0.0316 µM (inconclusive)
AC50 (Cytochrome P450 3A4): inconclusive
AC50 (Cytochrome P450 2C9): inconclusive
SMILES: N=c1ccn2c(n1)O[C@@H]1[C@@H](O)[C@H](CO)O[C@H]12

SMILES: CC1CCC(NC(=O)CCn2ccc3cc(S(=O)(=O)N4CCCC4)ccc32)CC1 (stereo not drawn)
EC50 (HEK293 [12]): > 59.6 µM (inactive)
AC50 [15]: 4.28 µM (active)
EC50 (HEK293 [13]): > 59.6 µM (inactive)
AC50 [16]: 5.19 µM (active)
AC50 [17]: 0.999 µM (active)
AC50 [18]: 3.53 µM (active)
